Measurements: patent publication US10294275B2, “Site-selective functionalization of glycopeptide antibiotics” (Yale University, priority 2012, dated 2019)
≈ marks a conversion by molar mass, not a printed value.

Legend:
Type in all cases: cell-based
[1] = test system: vancomycin-resistant enterococci (VanA), MMX 486; assay: Minimum inhibitory concentration against VRE (VanA); settings: for activity against VRE (VanA) strain, in words: compared with vancomycin and teicoplanin
Source text: (§1) The chemistry described above enabled direct synthesis of eleven previously unknown analogs of 3. The minimum inhibitory concentrations (MICs) for the new analogs as antibacterial agents as determined.

[2] = test system: methicillin-resistant S. aureus, ATCC 43300; assay: Minimum inhibitory concentration against MRSA; settings: for potency against MRSA strain, in words: compared with vancomycin and teicoplanin
Source text: as §1

[3] = test system: vancomycin-susceptible enterococci, ATCC 29212; assay: Minimum inhibitory concentration against VSE; settings: vancomycin-susceptible enterococci, ATCC 29212
Source text: as §1

[4] = test system: vancomycin-resistant enterococci (VanB), ATCC 51299; assay: Minimum inhibitory concentration against VRE (VanB)
Source text: as §1

[5] = test system: methicillin-susceptible S. aureus, ATCC 29213; assay: Minimum inhibitory concentration against MSSA
Source text: as §1

[6] = MMX 486, vancomycin and teicoplanin resistant
[7] = methicillin-resistant S. aureus, ATCC 43300
[8] = vancomycin-resistant enterococci, ATCC 51299
[9] = methicillin-susceptible S. aureus, ATCC 29213
[10] = compared with vancomycin and teicoplanin

Structure (SMILES) | MIC, VRE (VanA) [1, 6] [µg/mL] | MIC, MRSA [2, 7] [µg/mL] | MIC, VSE [3] [µg/mL] | MIC, VRE (VanB) [4, 8] [µg/mL] | MIC, MSSA [5, 9] [µg/mL] | potency against MRSA strain, in words [2] | activity against VRE (VanA) strain, in words [1] | activity against VRE (VanB) strain, in words [4, 10] | potency against MSSA strain, in words [5, 10] | MIC ([1]; Enterococcus, VRE, MMX 486, vancomycin and teicoplanin resistant, read-out: MIC, VRE (VanA)) [µg/mL] | MIC ([2]; Staphylococcus aureus, methicillin-resistant S. aureus, ATCC 43300, read-out: MIC, MRSA) [µg/mL] | MIC ([3]; read-out: MIC, VSE) [µg/mL] | MIC ([4]; Enterococcus, vancomycin-resistant enterococci, ATCC 51299, read-out: MIC, VRE (VanB)) [µg/mL] | MIC ([5]; Staphylococcus aureus, methicillin-susceptible S. aureus, ATCC 29213, read-out: MIC, MSSA) [µg/mL]
CC(=O)N[C@H]1[C@H](O[C@@H]2c3ccc(c(Cl)c3)Oc3cc4cc(c3O[C@@H]3O[C@H](CO)[C@@H](O)[C@H](O)[C@H]3NC(=O)CCCCCCC(C)C)Oc3ccc(cc3Cl)C[C@H]3NC(=O)[C@H](N)c5ccc(O)c(c5)Oc5cc(O)cc(c5)[C@H](NC3=O)C(=O)N[C@H]4C(=O)N[C@H]3C(=O)N[C@@H]2C(=O)N[C@H](C(=O)O)c2c(Br)c(O)cc(O[C@H]4O[C@H](CO)[C@@H](O)[C@H](O)[C@@H]4O)c2-c2cc3ccc2O)O[C@H](CO)[C@@H](O)[C@@H]1O [Compound 4] | >64 | 1 (≈ 0.511 µM) | 0.5 (≈ 0.255 µM) | 1 (≈ 0.511 µM) | 0.5 (≈ 0.255 µM) |  |  |  |  |  |  |  |  | 
CC(=O)N[C@H]1[C@H](O[C@@H]2c3ccc(c(Cl)c3)Oc3cc4cc(c3O[C@@H]3O[C@H](CO)[C@@H](O)[C@H](O)[C@H]3NC(=O)CCCCCCC(C)C)Oc3ccc(cc3Cl)C[C@H]3NC(=O)[C@H](N)c5ccc(O)c(c5)Oc5cc(O)c(Br)c(c5)[C@H](NC3=O)C(=O)N[C@H]4C(=O)N[C@H]3C(=O)N[C@@H]2C(=O)N[C@H](C(=O)O)c2cc(O)cc(O[C@H]4O[C@H](CO)[C@@H](O)[C@H](O)[C@@H]4O)c2-c2cc3ccc2O)O[C@H](CO)[C@@H](O)[C@@H]1O [Compound 7] | >64 | 1 (≈ 0.511 µM) | 0.25 (≈ 0.128 µM) | 0.5 (≈ 0.255 µM) | 0.5 (≈ 0.255 µM) |  |  |  |  |  |  |  |  | 
CC(=O)N[C@H]1[C@H](O[C@@H]2c3ccc(c(Cl)c3)Oc3cc4cc(c3O[C@@H]3O[C@H](CO)[C@@H](O)[C@H](O)[C@H]3NC(=O)CCCCCCC(C)C)Oc3ccc(cc3Cl)C[C@H]3NC(=O)[C@H](N)c5ccc(O)c(c5)Oc5cc(c(Br)c(O)c5Br)[C@H](NC3=O)C(=O)N[C@H]4C(=O)N[C@H]3C(=O)N[C@@H]2C(=O)N[C@H](C(=O)O)c2cc(O)c(Br)c(O[C@H]4O[C@H](CO)[C@@H](O)[C@H](O)[C@@H]4O)c2-c2cc3ccc2O)O[C@H](CO)[C@@H](O)[C@@H]1O [Compound 12] | >64 | 2 (≈ 0.945 µM) | 4 (≈ 1.89 µM) | 8 (≈ 3.78 µM) | 2 (≈ 0.945 µM) |  |  |  |  |  |  |  |  | 
CC(=O)N[C@H]1[C@H](O[C@@H]2c3ccc(c(Cl)c3)Oc3cc4cc(c3O[C@@H]3O[C@H](CO)[C@@H](O)[C@H](O)[C@H]3NC(=O)CCCCCCC(C)C)Oc3ccc(cc3Cl)C[C@H]3NC(=O)[C@H](N)c5ccc(O)c(c5)Oc5cc(O)c(-c6ccoc6)c(c5)[C@H](NC3=O)C(=O)N[C@H]4C(=O)N[C@H]3C(=O)N[C@@H]2C(=O)N[C@H](C(=O)O)c2cc(O)cc(O[C@H]4O[C@H](CO)[C@@H](O)[C@H](O)[C@@H]4O)c2-c2cc3ccc2O)O[C@H](CO)[C@@H](O)[C@@H]1O [Compound 14] | >64 | 0.25 (≈ 0.128 µM) | 0.25 (≈ 0.128 µM) | 0.5 (≈ 0.257 µM) | 0.25 (≈ 0.128 µM) | higher potency |  |  |  |  |  |  |  | 
CC(=O)N[C@H]1[C@H](O[C@@H]2c3ccc(c(Cl)c3)Oc3cc4cc(c3O[C@@H]3O[C@H](CO)[C@@H](O)[C@H](O)[C@H]3NC(=O)CCCCCCC(C)C)Oc3ccc(cc3-c3ccoc3)C[C@H]3NC(=O)[C@H](N)c5ccc(O)c(c5)Oc5cc(O)c(-c6ccoc6)c(c5)[C@H](NC3=O)C(=O)N[C@H]4C(=O)N[C@H]3C(=O)N[C@@H]2C(=O)N[C@H](C(=O)O)c2cc(O)cc(O[C@H]4O[C@H](CO)[C@@H](O)[C@H](O)[C@@H]4O)c2-c2cc3ccc2O)O[C@H](CO)[C@@H](O)[C@@H]1O [Compound 15] | >32 | 0.25 (≈ 0.126 µM) | 0.12 (≈ 0.0607 µM) | 0.25 (≈ 0.126 µM) | 0.25 (≈ 0.126 µM) |  |  |  |  |  |  |  |  | 
CC(=O)N[C@H]1[C@H](O[C@@H]2c3ccc(c(Cl)c3)Oc3cc4cc(c3O[C@@H]3O[C@H](CO)[C@@H](O)[C@H](O)[C@H]3NC(=O)CCCCCCC(C)C)Oc3ccc(cc3-c3ccoc3)C[C@H]3NC(=O)[C@H](N)c5ccc(O)c(c5)Oc5cc(O)cc(c5)[C@H](NC3=O)C(=O)N[C@H]4C(=O)N[C@H]3C(=O)N[C@@H]2C(=O)N[C@H](C(=O)O)c2c(Br)c(O)cc(O[C@H]4O[C@H](CO)[C@@H](O)[C@H](O)[C@@H]4O)c2-c2cc3ccc2O)O[C@H](CO)[C@@H](O)[C@@H]1O [Compound 16] | >64 | 0.5 (≈ 0.251 µM) | 0.25 (≈ 0.126 µM) | 0.5 (≈ 0.251 µM) | 0.5 (≈ 0.251 µM) |  |  |  |  |  |  |  |  | 
CC(=O)N[C@H]1[C@H](O[C@@H]2c3ccc(c(Cl)c3)Oc3cc4cc(c3O[C@@H]3O[C@H](CO)[C@@H](O)[C@H](O)[C@H]3NC(=O)CCCCCCC(C)C)Oc3ccc(cc3-c3ccc(-c5ccccc5)cc3)C[C@H]3NC(=O)[C@H](N)c5ccc(O)c(c5)Oc5cc(O)cc(c5)[C@H](NC3=O)C(=O)N[C@H]4C(=O)N[C@H]3C(=O)N[C@@H]2C(=O)N[C@H](C(=O)O)c2c(Br)c(O)cc(O[C@H]4O[C@H](CO)[C@@H](O)[C@H](O)[C@@H]4O)c2-c2cc3ccc2O)O[C@H](CO)[C@@H](O)[C@@H]1O [Compound 17] | 32 (≈ 15.4 µM) | 2 (≈ 0.963 µM) | 1 (≈ 0.482 µM) | 0.5 (≈ 0.241 µM) | 4 (≈ 1.93 µM) |  |  |  |  |  |  |  |  | 
CC(=O)N[C@H]1[C@H](O[C@@H]2c3ccc(c(Cl)c3)Oc3cc4cc(c3O[C@@H]3O[C@H](CO)[C@@H](O)[C@H](O)[C@H]3NC(=O)CCCCCCC(C)C)Oc3ccc(cc3-c3ccoc3)C[C@H]3NC(=O)[C@H](N)c5ccc(O)c(c5)Oc5cc(O)cc(c5)[C@H](NC3=O)C(=O)N[C@H]4C(=O)N[C@H]3C(=O)N[C@@H]2C(=O)N[C@H](C(=O)O)c2cc(O)cc(O[C@H]4O[C@H](CO)[C@@H](O)[C@H](O)[C@@H]4O)c2-c2cc3ccc2O)O[C@H](CO)[C@@H](O)[C@@H]1O [Compound 18] | 32 (≈ 16.7 µM) | 0.25 (≈ 0.131 µM) | 0.12 (≈ 0.0628 µM) | 0.12 (≈ 0.0628 µM) | 0.25 (≈ 0.131 µM) |  | enhancement of activity | enhancement of activity |  |  |  |  |  | 
CC(=O)N[C@H]1[C@H](O[C@@H]2c3ccc(c(Cl)c3)Oc3cc4cc(c3O[C@@H]3O[C@H](CO)[C@@H](O)[C@H](O)[C@H]3NC(=O)CCCCCCC(C)C)Oc3ccc(cc3-c3ccc(-c5ccccc5)cc3)C[C@H]3NC(=O)[C@H](N)c5ccc(O)c(c5)Oc5cc(O)cc(c5)[C@H](NC3=O)C(=O)N[C@H]4C(=O)N[C@H]3C(=O)N[C@@H]2C(=O)N[C@H](C(=O)O)c2cc(O)cc(O[C@H]4O[C@H](CO)[C@@H](O)[C@H](O)[C@@H]4O)c2-c2cc3ccc2O)O[C@H](CO)[C@@H](O)[C@@H]1O [Compound 19] | 8 (≈ 4.01 µM) | 4 (≈ 2 µM) | 0.5 (≈ 0.25 µM) | 0.25 (≈ 0.125 µM) | 8 (≈ 4.01 µM) | loss of potency | significant activity |  | loss of potency |  |  |  |  | 
CCCCCC/C=C/c1cc2ccc1Oc1cc3cc(c1O[C@@H]1O[C@H](CO)[C@@H](O)[C@H](O)[C@H]1NC(=O)CCCCCCC(C)C)Oc1ccc(cc1Cl)[C@@H](O[C@@H]1O[C@H](CO)[C@@H](O)[C@H](O)[C@H]1NC(C)=O)[C@@H]1NC(=O)[C@H](NC(=O)[C@@H]3NC(=O)[C@H]3NC(=O)[C@@H](C2)NC(=O)[C@H](N)c2ccc(O)c(c2)Oc2cc(O)cc3c2)c2ccc(O)c(c2)-c2c(O[C@H]3O[C@H](CO)[C@@H](O)[C@H](O)[C@@H]3O)cc(O)cc2[C@@H](C(=O)O)NC1=O [Compound 20] | 1 (≈ 0.511 µM) | 4 (≈ 2.05 µM) | 0.5 (≈ 0.256 µM) | 0.25 (≈ 0.128 µM) | 8 (≈ 4.09 µM) |  | quite high (significant) potency |  |  |  |  |  |  | 
CC(=O)NC[C@H]1CN(c2ccc(N3CCOCC3)c(F)c2)C(=O)O1 [Linezolid, reference compound] |  |  |  |  |  |  |  |  |  | 2 (≈ 5.93 µM) | 4 (≈ 11.9 µM) | 2 (≈ 5.93 µM) | 2 (≈ 5.93 µM) | 4 (≈ 11.9 µM)
